# PubChem BioAssay AID1919000 (Molecular Pharmacology Branch, DTP, NCI, 2023)
# pIC50: −log10 of the molar value. Where “and” joins values, the source holds several entries; their conditions need not be identical. Equal entries are not always repeated.
# Test system: 653999-131-R-J2-PDC complex spheroids, growth % test/control
# Test: Anticancer human tumor 653999-131-R-J2-PDC patient-derived lung adenocarcinoma cell line growth inhibition [AhR]
# Conditions: for viability, T/C: stronger effect = lower value
# Outline: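 Complex tumor spheroids co-cultured with HUVEC and human MSC stroma; AhR antagonists tested in combination with standard-of-care and investigational agents. Top concentration at or near clinical Cmax (else 10 microM), half-log dilutions; growth expressed as percent test/control.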
# [1] = curve of first compound, second compound 0.1 µM
# [2] = curve of first compound, second compound 0.316 µM
# [3] = curve of first compound, second compound 1 µM
# [4] = curve of first compound, second compound 3.16 µM
# [5] = curve of first compound, second compound 10 µM
# [6] = second compound 0.1 µM, first compound 0.0316 µM
# [7] = second compound 0.1 µM, first compound 0.1 µM
# [8] = second compound 0.1 µM, first compound 0.316 µM
# [9] = second compound 0.1 µM, first compound 1 µM
# [10] = second compound 0.1 µM, first compound 3.16 µM
# [11] = second compound 0.1 µM, first compound 10 µM
# [12] = second compound 0.316 µM, first compound 0.0316 µM
# [13] = second compound 0.316 µM, first compound 0.1 µM
# [14] = second compound 0.316 µM, first compound 0.316 µM
# [15] = second compound 0.316 µM, first compound 1 µM
# [16] = second compound 0.316 µM, first compound 3.16 µM
# [17] = second compound 0.316 µM, first compound 10 µM
# [18] = second compound 1 µM, first compound 0.0316 µM
# [19] = second compound 1 µM, first compound 0.1 µM
# [20] = second compound 1 µM, first compound 0.316 µM
# [21] = second compound 1 µM, first compound 1 µM
# [22] = second compound 1 µM, first compound 3.16 µM
# [23] = second compound 1 µM, first compound 10 µM
# [24] = second compound 3.16 µM, first compound 0.0316 µM
# [25] = second compound 3.16 µM, first compound 0.1 µM
# [26] = second compound 3.16 µM, first compound 0.316 µM
# [27] = second compound 3.16 µM, first compound 1 µM
# [28] = second compound 3.16 µM, first compound 3.16 µM
# [29] = second compound 3.16 µM, first compound 10 µM
# [30] = second compound 10 µM, first compound 0.0316 µM
# [31] = second compound 10 µM, first compound 0.1 µM
# [32] = second compound 10 µM, first compound 0.316 µM
# [33] = second compound 10 µM, first compound 1 µM
# [34] = second compound 10 µM, first compound 3.16 µM
# [35] = second compound 10 µM, first compound 10 µM
# 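Note: spheroids exposed to agents for seven days.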
# 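Throughout, for viability, T/C: 100% = DMSO vehicle control viability.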
compound,measurement,setting,value
O=C(C=Cn1cnc(-c2cc(C(F)(F)F)cc(C(F)(F)F)c2)n1)NNc1cnccn1 + CC(CO)NC(=O)c1cc(-c2ccc(Cl)cc2)nn(-c2cnn(C)c2)c1=O,pIC50,[1],6.12
same,pIC50,[2],6.11
same,pIC50,[3],6.09
same,pIC50,[4],5.91
same,pIC50,[5],< 5.52
same,"viability, T/C","second compound 0.1 µM, first compound 0.00949 µM",103%
same,"viability, T/C","second compound 0.1 µM, first compound 0.03 µM",110%
same,"viability, T/C","second compound 0.1 µM, first compound 0.0949 µM",76.1%
same,"viability, T/C","second compound 0.1 µM, first compound 0.3 µM",59.7%
same,"viability, T/C","second compound 0.1 µM, first compound 0.949 µM",48.9%
same,"viability, T/C","second compound 0.1 µM, first compound 3 µM",45.1%
same,"viability, T/C","second compound 0.316 µM, first compound 0.00949 µM",109%
same,"viability, T/C","second compound 0.316 µM, first compound 0.03 µM",98%
same,"viability, T/C","second compound 0.316 µM, first compound 0.0949 µM",71.3%
same,"viability, T/C","second compound 0.316 µM, first compound 0.3 µM",59.7%
same,"viability, T/C","second compound 0.316 µM, first compound 0.949 µM",51.1%
same,"viability, T/C","second compound 0.316 µM, first compound 3 µM",40%
same,"viability, T/C","second compound 1 µM, first compound 0.00949 µM",95.8%
same,"viability, T/C","second compound 1 µM, first compound 0.03 µM",103%
same,"viability, T/C","second compound 1 µM, first compound 0.0949 µM",86.1%
same,"viability, T/C","second compound 1 µM, first compound 0.3 µM",61.1%
same,"viability, T/C","second compound 1 µM, first compound 0.949 µM",51.7%
same,"viability, T/C","second compound 1 µM, first compound 3 µM",42.8%
same,"viability, T/C","second compound 3.16 µM, first compound 0.00949 µM",114%
same,"viability, T/C","second compound 3.16 µM, first compound 0.03 µM",105%
same,"viability, T/C","second compound 3.16 µM, first compound 0.0949 µM",96.1%
same,"viability, T/C","second compound 3.16 µM, first compound 0.3 µM",64.2%
same,"viability, T/C","second compound 3.16 µM, first compound 0.949 µM",55.5%
same,"viability, T/C","second compound 3.16 µM, first compound 3 µM",43.6%
same,"viability, T/C","second compound 10 µM, first compound 0.00949 µM",111%
same,"viability, T/C","second compound 10 µM, first compound 0.03 µM",101%
same,"viability, T/C","second compound 10 µM, first compound 0.0949 µM",86.5%
same,"viability, T/C","second compound 10 µM, first compound 0.3 µM",65.6%
same,"viability, T/C","second compound 10 µM, first compound 0.949 µM",54%
same,"viability, T/C","second compound 10 µM, first compound 3 µM",54.4%
COc1cc(Nc2ncc3c(n2)-c2ccc(Cl)cc2C(c2c(F)cccc2OC)=NC3)ccc1C(=O)O,"viability, T/C",compound 0.0316 µM,93.1% and 93.5% and 98%
same,"viability, T/C",compound 0.1 µM,73% and 85% and 75.2%
same,"viability, T/C",compound 0.316 µM,75.1% and 70.2% and 68.6%
same,"viability, T/C",compound 1 µM,71.5% and 66.9% and 67.2%
same,"viability, T/C",compound 3.16 µM,66.2% and 68.2% and 70.6%
same,"viability, T/C",compound 10 µM,60.7% and 64.3% and 65.4%
same,pIC50,curve of compound,< 5.00
O=C(C=Cc1cccc(S(=O)(=O)Nc2ccccc2)c1)NO + Cc1cncc(-c2nc(NCCc3c[nH]c4ccccc34)c3ncn(C(C)C)c3n2)c1,pIC50,[1],5.52
same,pIC50,[2],5.48
same,pIC50,[3],5.48
same,pIC50,[4],5.46
same,pIC50,[5],5.84
same,"viability, T/C",[6],91.4%
same,"viability, T/C",[7],96.3%
same,"viability, T/C",[8],88%
same,"viability, T/C",[9],74.5%
same,"viability, T/C",[10],49.2%
same,"viability, T/C",[11],10.7%
same,"viability, T/C",[12],94.1%
same,"viability, T/C",[13],96.7%
same,"viability, T/C",[14],89%
same,"viability, T/C",[15],76.5%
same,"viability, T/C",[16],52.2%
same,"viability, T/C",[17],10.6%
same,"viability, T/C",[18],95.8%
same,"viability, T/C",[19],104%
same,"viability, T/C",[20],98.3%
same,"viability, T/C",[21],91.2%
same,"viability, T/C",[22],51.6%
same,"viability, T/C",[23],9.38%
same,"viability, T/C",[24],104%
same,"viability, T/C",[25],99.5%
same,"viability, T/C",[26],95.1%
same,"viability, T/C",[27],79.3%
same,"viability, T/C",[28],53.7%
same,"viability, T/C",[29],11.8%
same,"viability, T/C",[30],54.7%
same,"viability, T/C",[31],50.4%
same,"viability, T/C",[32],50.4%
same,"viability, T/C",[33],51.7%
same,"viability, T/C",[34],46.9%
same,"viability, T/C",[35],8.52%
CC1COCCN1c1cc(C2(S(C)(=N)=O)CC2)nc(-c2ccnc3[nH]ccc23)n1 (configuration not stated) + Cc1cncc(-c2nc(NCCc3c[nH]c4ccccc34)c3ncn(C(C)C)c3n2)c1,pIC50,[1],5.07
same,pIC50,[2],5.01
same,pIC50,[3],< 5.00
same,pIC50,[4],5.01
same,pIC50,[5],5.57
same,"viability, T/C",[6],105%
same,"viability, T/C",[7],102%
same,"viability, T/C",[8],94.7%
same,"viability, T/C",[9],104%
same,"viability, T/C",[10],86.1%
same,"viability, T/C",[11],43.7%
same,"viability, T/C",[12],103%
same,"viability, T/C",[13],111%
same,"viability, T/C",[14],108%
same,"viability, T/C",[15],94.8%
same,"viability, T/C",[16],82%
same,"viability, T/C",[17],49.5%
same,"viability, T/C",[18],107%
same,"viability, T/C",[19],110%
same,"viability, T/C",[20],124%
same,"viability, T/C",[21],104%
same,"viability, T/C",[22],87.1%
same,"viability, T/C",[23],55.1%
same,"viability, T/C",[24],101%
same,"viability, T/C",[25],111%
same,"viability, T/C",[26],112%
same,"viability, T/C",[27],99%
same,"viability, T/C",[28],85%
same,"viability, T/C",[29],49.2%
same,"viability, T/C",[30],71.4%
same,"viability, T/C",[31],70.6%
same,"viability, T/C",[32],64.5%
same,"viability, T/C",[33],56.1%
same,"viability, T/C",[34],49.6%
same,"viability, T/C",[35],44.2%
